# Data published in patent US20200223889A1, “Bicyclic Compounds Capable of Binding to Melanocortin 4 Receptor” (Novo Nordisk A/S, priority 2017, published 2020).
# Read-outs that look alike come from different tables or passages of the source. Positions of bridges follow the written chain, without caps; N, C: chain ends. Non-standard residues stand in square brackets, D forms with d. Residues, ends and D or L forms follow the SMILES beside them. Cit = NC(=O)NCCC[C@H](N)C(=O)O; Agp = N=C(N)NC[C@H](N)C(=O)O; Api = NC1(C(=O)O)CCNCC1; Aib = CC(C)(N)C(=O)O
# Tests used:
# [1] = target: T1, human MC4R (Homo sapiens, UniProt P32245); experiment: Functional cAMP assay (CisBio HTRF) in BHK cells expressing human MC4R; type: cell-based; settings: for MC1R/MC4R cAMP EC50 ratio: MC1R cAMP EC50 divided by MC4R cAMP EC50
# T1 construct: expressed in transfected cells
# T1 sequence (P32245 whole entry): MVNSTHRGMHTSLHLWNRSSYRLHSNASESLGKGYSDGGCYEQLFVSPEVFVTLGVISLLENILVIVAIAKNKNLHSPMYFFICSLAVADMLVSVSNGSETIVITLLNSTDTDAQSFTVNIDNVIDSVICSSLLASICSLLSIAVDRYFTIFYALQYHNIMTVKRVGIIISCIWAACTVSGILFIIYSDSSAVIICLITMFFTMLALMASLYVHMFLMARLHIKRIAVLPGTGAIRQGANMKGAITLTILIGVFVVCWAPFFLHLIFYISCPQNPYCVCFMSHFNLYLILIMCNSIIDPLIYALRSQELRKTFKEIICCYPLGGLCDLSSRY
# In short: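 Compound working solutions, 10-fold dilutions from 2 μM at twice final strength, in buffer containing 1 mM IBMX, were incubated 30 min at 25 °C with BHK cells stably carrying human MC4R or MC1R. Accumulated cAMP was then detected by competitive HTRF after 1 h at 25 °C and fitted by non-linear regression.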
# [2] = target: T1, human MC4R; experiment: 125NDP-α-MSH competitive binding to membranes of BHK cells expressing human MC4 receptor (filtration assay)
# Procedure: In Vitro ^125NDP-α-MSH Binding to Recombinant BHK Cells Expressing Human MC4 Receptor (Filtration Assay)
# In order to assess the binding affinity of the selected compounds for the human MC4R competitive binding assays was performed with radiolabeled NDP-alpha MSH (^125NDP-α-MSH).
# The assay was performed in 96-well filterplates (Unifilter) using BHK cells stably expressing the human MC4 receptor.
# The BHK cell membranes were prepared from frozen or fresh cells that were homogenized in 20 mM HEPES pH 7.1, 5 mM MgCl2, 1 mg/ml bacitracin (buffer 1) and centrifuged at 15000 rpm at 4° C., 10 min in a Sorvall RC 5B plus, SS-34 rotor. The supernatant was discarded, and the pellets were re-suspended in buffer 1, homogenized and centrifuged two more times. The final pellets were re-suspended in buffer 1 and the protein concentration was measured and adjusted with buffer 1 to 5 mg/ml and the membrane preparation was kept at −80° C. until assay. The assay was run on a dilution of this cell membrane suspension without any further preparation. The suspension was diluted to give maximally 10% specific binding, i.e. to approx. 50-100 fold dilution, optimized after each membrane preparation. The assay was performed in a total volume of 200 μl: 50 μl of cell suspension, 50 μl of ^125NDP-α-MSH (apx. […] in final concentration), 50 μl of test compound and 50 μl binding buffer were mixed and incubated for 2 h at 25° C. (binding buffer: 25 mM HEPES, pH 7.0, 1 mM CaCl2), 1 mM MgSO4, 1 mM EGTA, 0.005% Tween™ 20 and 0.1% HSA or, alternatively, 0.1% ovalbumin (Sigma; catalogue No. A-5503)). Test compounds were dissolved in 100% DMSO and diluted in binding buffer in a dose range from 1 μM to 0.001 nM. Radiolabelled ligand and membranes were diluted in binding buffer. The incubation was stopped by dilution with 8×100 μl ice-cold 0.9% NaCl. The radioactivity retained on the filters was counted using a Packard Topcounter. The data were analysed by non-linear regression analysis of binding curves, using the Windows™ program GraphPad™ Prism (GraphPad Software, USA).
# [3] = BHK cells expressing human MC4R, '>' = highest dose used with no response, read-out: MC4R cAMP EC50
# [4] = human MC4R, BHK cell membranes, 125NDP-α-MSH radioligand, read-out: MC4R binding Ki
"EC50 [1, 3] [nM]",MC1R/MC4R cAMP EC50 ratio [1],"Ki [2, 4] [nM]",SMILES,EC50 [1] [nM],Ki [2] [nM]
0.29,38,0.31,"CC1(C)NC(=O)[C@@H]2CSSC[C@H](NC(=O)[C@H](Cc3c[nH]c4ccccc34)NC(=O)[C@H](CCCCN)NC(=O)[C@@H](Cc3ccccc3)NC(=O)[C@H](Cc3c[nH]cn3)NC1=O)C(=O)NC(C)(C)C(=O)N[C@@H](Cc1c[nH]cn1)C(=O)N[C@H](Cc1ccccc1)C(=O)N[C@@H](CCCCN)C(=O)N[C@@H](Cc1c[nH]c3ccccc13)C(=O)N2 [Chem. 40, c[c[Cys-Aib-His-D-Phe-Lys-Trp-Cys]- Aib-His-D-Phe-Lys-Trp]] (cyclo([Aib]H[dF]KWC[Aib]H[dF]KWC); disulfide 6-12)",,
0.44,107,2.61,"CC1(C)NC(=O)[C@@H]2CSSC[C@H](NC(=O)[C@H](Cc3c[nH]c4ccccc34)NC(=O)[C@H](CNC(=N)N)NC(=O)[C@@H](Cc3ccccc3)NC(=O)[C@H](Cc3c[nH]cn3)NC1=O)C(=O)NC(C)(C)C(=O)N[C@@H](Cc1c[nH]cn1)C(=O)N[C@H](Cc1ccccc1)C(=O)N[C@@H](CNC(=N)N)C(=O)N[C@@H](Cc1c[nH]c3ccccc13)C(=O)N2 [Chem. 43, c[c[Cys-Aib-His-D-Phe-AGP-Trp- Cys]-Aib-His-D-Phe-AGP-Trp]] (cyclo([Agp]WC[Aib]H[dF][Agp]WC[Aib]H[dF]); disulfide 3-9)",,
0.06,152,0.15,"C[C@@H]1NC(=O)[C@@H]2CSSC[C@H](NC(=O)[C@H](Cc3c[nH]c4ccccc34)NC(=O)[C@H](CCCNC(N)=O)NC(=O)[C@@H](Cc3ccccc3)NC(=O)[C@H](Cc3c[nH]cn3)NC1=O)C(=O)N[C@@H](C)C(=O)N[C@@H](CCCCN)C(=O)N[C@@H](CCCCN)C(=O)N[C@@H](CCCCN)C(=O)N[C@@H](Cc1c[nH]c3ccccc13)C(=O)N2 [Chem. 48, c[c[Cys-Ala-His-D-Phe-Cit-Trp-Cys]- Ala-Lys-Lys-Lys-Trp]] (cyclo(AH[dF][Cit]WCAKKKWC); disulfide 6-12)",,
0.19,55,0.21,"C[C@@H]1NC(=O)[C@@H]2CSSC[C@H](NC(=O)[C@H](Cc3c[nH]c4ccccc34)NC(=O)[C@H](CCC(N)=O)NC(=O)[C@@H](Cc3ccccc3)NC(=O)[C@H](Cc3c[nH]cn3)NC1=O)C(=O)N[C@@H](C)C(=O)N[C@@H](CCCCN)C(=O)N[C@H](CCCCN)C(=O)N[C@@H](CCCCN)C(=O)N[C@@H](Cc1c[nH]c3ccccc13)C(=O)N2 [Chem. 57, c[c[Cys-Ala-His-D-Phe-Gln-Trp-Cys]- Ala-Lys-D-Lys-Lys-Trp]] (cyclo(AH[dF]QWCAK[dK]KWC); disulfide 6-12)",,
0.11,36,0.09,"CC(=O)NCCCC[C@@H]1NC(=O)[C@@H](Cc2ccccc2)NC(=O)[C@H](Cc2c[nH]cn2)NC(=O)[C@H](C)NC(=O)[C@@H]2CSSC[C@H](NC(=O)[C@H](Cc3c[nH]c4ccccc34)NC1=O)C(=O)N[C@@H](C)C(=O)N[C@@H](CCCCN)C(=O)N[C@H](CCCCN)C(=O)N[C@@H](CCCCN)C(=O)N[C@@H](Cc1c[nH]c3ccccc13)C(=O)N2 [Chem. 58, c[c[Cys-Ala-His-D-Phe-AcLys-Trp- Cys]-Ala-Lys-D-Lys-Lys-Trp]] (cyclo(AH[dF]K(Ac)WCAK[dK]KWC); disulfide 6-12)",,
0.17,313,0.1,"C[C@@H]1NC(=O)[C@@H]2CSSC[C@H](NC(=O)[C@H](Cc3c[nH]c4ccccc34)NC(=O)[C@H](Cc3c[nH]cn3)NC(=O)[C@@H](Cc3ccccc3)NC(=O)[C@H](Cc3c[nH]cn3)NC1=O)C(=O)N[C@@H](C)C(=O)N[C@@H](CCCCN)C(=O)N[C@@H](CCCCN)C(=O)N[C@@H](CCCCN)C(=O)N[C@@H](Cc1c[nH]c3ccccc13)C(=O)N2 [Chem. 60, c[c[Cys-Ala-His-D-Phe-His-Trp-Cys]- Ala-Lys-Lys-Lys-Trp]] (cyclo(AH[dF]HWCAKKKWC); disulfide 6-12)",,
0.02,42,0.08,"C[C@@H]1NC(=O)[C@@H]2CSSC(C)(C)[C@H](NC(=O)[C@H](Cc3c[nH]c4ccccc34)NC(=O)[C@H](CCCNC(=N)N)NC(=O)[C@@H](Cc3ccccc3)NC(=O)[C@H](Cc3c[nH]cn3)NC1=O)C(=O)N[C@@H](C)C(=O)N[C@@H](Cc1c[nH]cn1)C(=O)N[C@H](Cc1ccccc1)C(=O)N[C@@H](CCCNC(=N)N)C(=O)N[C@@H](Cc1c[nH]c3ccccc13)C(=O)N2 [Chem. 63, c[c[Pen-Ala-His-D-Phe-Arg-Trp-Cys]- Ala-His-D-Phe-Arg-Trp]]",,

SMILES,"EC50 [1, 3] [nM]",MC1R/MC4R cAMP EC50 ratio [1],"Ki [2, 4] [nM]",EC50 [1] [nM],Ki [2] [nM]
"N=C(N)NCCC[C@@H]1NC(=O)[C@@H](Cc2ccccc2)NC(=O)[C@H](Cc2c[nH]cn2)NC(=O)[C@@H]2CCCN2C(=O)[C@@H]2CSSC[C@H](NC(=O)[C@H](Cc3c[nH]c4ccccc34)NC1=O)C(=O)N1CCC[C@H]1C(=O)N[C@@H](Cc1c[nH]cn1)C(=O)N[C@H](Cc1ccccc1)C(=O)N[C@@H](CCCNC(=N)N)C(=O)N[C@@H](Cc1c[nH]c3ccccc13)C(=O)N2 [Chem. 30, c[c[Cys-Pro-His-D-Phe-Arg-Trp-Cys]- Pro-His-D-Phe-Arg-Trp]] (cyclo(CPH[dF]RWCPH[dF]RW); disulfide 1-7)",0.03,5,0.09,,
"CC(C)[C@H]1NC(=O)[C@@H]2CSSC[C@H](NC(=O)[C@H](Cc3c[nH]c4ccccc34)NC(=O)[C@H](CCCNC(=N)N)NC(=O)[C@@H](Cc3ccccc3)NC(=O)[C@H](Cc3c[nH]cn3)NC1=O)C(=O)N[C@H](C(C)C)C(=O)N[C@@H](Cc1c[nH]cn1)C(=O)N[C@H](Cc1ccccc1)C(=O)N[C@@H](CCCNC(=N)N)C(=O)N[C@@H](Cc1c[nH]c3ccccc13)C(=O)N2 [Chem. 34, c[c[Cys-D-Val-His-D-Phe-Arg-Trp- Cys]-D-Val-His-D-Phe-Arg-Trp]] (cyclo(C[dV]H[dF]RWC[dV]H[dF]RW); disulfide 1-7)",0.12,22,0.88,,
"CC(C)[C@@H]1NC(=O)[C@@H]2CSSC[C@H](NC(=O)[C@H](Cc3c[nH]c4ccccc34)NC(=O)[C@H](CCCNC(=N)N)NC(=O)[C@@H](Cc3ccccc3)NC(=O)[C@H](Cc3c[nH]cn3)NC1=O)C(=O)N[C@@H](C(C)C)C(=O)N[C@@H](Cc1c[nH]cn1)C(=O)N[C@H](Cc1ccccc1)C(=O)N[C@@H](CCCNC(=N)N)C(=O)N[C@@H](Cc1c[nH]c3ccccc13)C(=O)N2 [Chem. 36, c[c[Cys-Val-His-D-Phe-Arg-Trp-Cys]- Val-His-D-Phe-Arg-Trp]] (cyclo(CVH[dF]RWCVH[dF]RW); disulfide 1-7)",0.04,26,0.12,,
"N=C(N)NCCC[C@@H]1NC(=O)[C@@H](Cc2ccccc2)NC(=O)[C@H](Cc2c[nH]cn2)NC(=O)C2(CCNCC2)NC(=O)[C@@H]2CSSC[C@H](NC(=O)[C@H](Cc3c[nH]c4ccccc34)NC1=O)C(=O)NC1(CCNCC1)C(=O)N[C@@H](Cc1c[nH]cn1)C(=O)N[C@H](Cc1ccccc1)C(=O)N[C@@H](CCCNC(=N)N)C(=O)N[C@@H](Cc1c[nH]c3ccccc13)C(=O)N2 [Chem. 47, c[c[Cys-ACP-His-D-Phe-Arg-Trp- Cys]-ACP-His-D-Phe-Arg-Trp]] (cyclo([Api]H[dF]RWC[Api]H[dF]RWC); disulfide 6-12)",,23,,0.12,0.72
"N=C(N)NCCC[C@@H]1NC(=O)[C@@H]2CSSC[C@H](NC(=O)[C@H](Cc3c[nH]c4ccccc34)NC(=O)[C@H](CCCNC(N)=O)NC(=O)[C@@H](Cc3ccccc3)NC(=O)[C@H](Cc3c[nH]cn3)NC1=O)C(=O)N[C@@H](CCCNC(=N)N)C(=O)N[C@@H](Cc1c[nH]cn1)C(=O)N[C@H](Cc1ccccc1)C(=O)N[C@@H](CCCNC(N)=O)C(=O)N[C@@H](Cc1c[nH]c3ccccc13)C(=O)N2 [Chem. 54, c[c[Cys-Arg-His-D-Phe-Cit-Trp-Cys]- Arg-His-D-Phe-Cit-Trp]] (cyclo(CRH[dF][Cit]WCRH[dF][Cit]W); disulfide 1-7)",0.04,7,0.21,,
